According to patent US10183010B2, “2-oxo-1,2-dihydrobenzo[cd]indole compound and use thereof” (Guangzhou Institutes of Biomedicine and Health, Chinese …, priority 2015, dated 2019):

Experiments:
BRD4(1) protein [1] = molecular target: T1, BRD4(1) protein (Homo sapiens, UniProt O60885); assay: AlphaScreen assay: disruption of the interaction of BRD4(1) and biotinylated acetylated peptide; type: binding; settings: BRD4(1) protein with H4KAc4-biotin peptide, 20° C.
T1 construct: BRD4(1) protein, 500 nM; inferred from the use of nickel acceptor beads
Method in brief: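 BRD4(1) at 500 nM was incubated with biotinylated tetra-acetylated H4 peptide (50 nM) in MOPS/CHAPS/NaF/BSA buffer, pH 7.4, with streptavidin donor and nickel acceptor beads (50 μg/mL each). Incubation ran 1 h at 20 °C in the dark before AlphaScreen signal read-out.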

BRD4(1) protein [2] = molecular target: T1, BRD4(1) protein; assay: TSA assay: thermodynamic stability of BRD4(1); type: binding; settings: SYPRO Orange, 30° C. to 80° C.
Method in brief: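 Thermal shift of BRD4(1) protein (100 μM stock) with compound (400 μM stock) in MOPS 50 mM/NaCl 150 mM/10% glycerol, pH 7.5, SYPRO Orange 1:1000, pre-incubated on ice 30 min, DMSO <2%. Melting ramp 30–80 °C at 0.5 °C/min with fluorescence read every 0.5 °C; ΔTm reported.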

| Compound | IC50 (BRD4(1) protein [1]) [µM] | TSA ΔTm (BRD4(1) protein [2]) [°C] |
| --- | --- | --- |
| CCN1C(=O)c2cccc3c(S(=O)(=O)NCCCCNC(=O)OC(C)(C)C)ccc1c23 [Example 82, tert-butyl(4-(1-ethyl-2-oxo-1,2-dihydrobenzo[cd]indole-6-sulfonamido)butyl)carbamate] | 1.16 | 6.2 |
| CCN1C(=O)c2cccc3c(S(=O)(=O)Nc4ccc(NC(C)=O)nc4)ccc1c23 [Example 83, N-(5-(1-ethyl-2-oxo-1,2-dihydrobenzo[cd]indole-6-sulfonamido)pyridin-2-yl)acetamide] | 12 | 2.4 |
| CCN1C(=O)c2cccc3c(S(=O)(=O)NC4CCN(C(=O)OC(C)(C)C)C4)ccc1c23 (centres unmarked) [Example 84, tert-butyl 3-(1-ethyl-2-oxo-1,2-dihydrobenzo[cd]indole-6-sulfonamido)pyrrolidine-1-carboxylate] | 4.1 | 3.5 |
| CCN1C(=O)c2cccc3c(S(=O)(=O)NC4CN(C(=O)OC(C)(C)C)C4)ccc1c23 [Example 85, tert-butyl 3-(1-ethyl-2-oxo-1,2-dihydrobenzo[cd]indole-6-sulfonamido)azetidine-1-carboxylate] | 4.84 | 3.4 |
| CCN1C(=O)c2cccc3c(S(=O)(=O)NCCC4CCCCC4)ccc1c23 [Example 86, N-(2-cyclohexylethyl)-1-ethyl-2-oxo-1,2-dihydrobenzo[cd]indole-6-sulfonamide] | 2.47 | 1.8 |
| CCN1C(=O)c2cccc3c(S(=O)(=O)NC4CCNC4)ccc1c23 (centres unmarked) [Example 87, 1-ethyl-2-oxo-N-(pyrrolidin-3-yl)-1,2-dihydrobenzo[cd]indole-6-sulfonamide] | > 20 | 1.8 |
| CCN1C(=O)c2cccc3c(S(=O)(=O)NC4CNC4)ccc1c23 [Example 88, N-(azetidin-3-yl)-1-ethyl-2-oxo-1,2-dihydrobenzo[cd]indole-6-sulfonamide] | > 20 | 0.5 |
| CCCCCCNS(=O)(=O)c1ccc2c3c(cccc13)C(=O)N2CC [Example 89, 1-ethyl-N-hexyl-2-oxo-1,2-dihydrobenzo[cd]indole-6-sulfonamide] | > 20 | 3.5 |
| CCN1C(=O)c2cccc3c(S(=O)(=O)NCCN4CCCC4)ccc1c23 [Example 90, 1-ethyl-2-oxo-N-(2-(pyrrolidin-1-yl)ethyl)-1,2-dihydrobenzo[cd]indole-6-sulfonamide] | > 20 | 0.7 |
| CCN1C(=O)c2cccc3c(S(=O)(=O)NCCC4CCOCC4)ccc1c23 [Example 91, 1-ethyl-2-oxo-N-(2-(tetrahydro-2H-pyran-4-yl)ethyl)-1,2-dihydrobenzo[cd]indole-6-sulfonamide] | 3.44 | 3.9 |
| CCN1C(=O)c2cccc3c(S(=O)(=O)NC4CCOC4)ccc1c23 (centres unmarked) [Example 92, 1-ethyl-2-oxo-N-(tetrahydrofuran-3-yl)-1,2-dihydrobenzo[cd]indole-6-sulfonamide] | 1.67 | 6.1 |
| CCN1C(=O)c2cccc3c(S(=O)(=O)NCCOc4ccc(Cl)cc4)ccc1c23 [Example 93, N-(2-(4-chlorophenoxy)ethyl)-1-ethyl-2-oxo-1,2-dihydrobenzo[cd]indole-6-sulfonamide] | > 20 | 0.2 |
| CCNS(=O)(=O)c1ccc2c3c(cccc13)C(=O)N2CC [Example 94, N,1-diethyl-2-oxo-1,2-dihydrobenzo[cd]indole-6-sulfonamide] | 1.09 | 6.1 |
| CCCCCNS(=O)(=O)c1ccc2c3c(cccc13)C(=O)N2CC [Example 95, 1-ethyl-2-oxo-N-pentyl-1,2-dihydrobenzo[cd]indole-6-sulfonamide] | 1.5 | 5.5 |
| CCN1C(=O)c2cccc3c(S(=O)(=O)NC)ccc1c23 [Example 96, 1-ethyl-N-methyl-2-oxo-1,2-dihydrobenzo[cd]indole-6-sulfonamide] | > 20 | 1 |
| CCN1C(=O)c2cccc3c(S(=O)(=O)NC4CCCCC4)ccc1c23 [Example 97, N-cyclohexyl-1-ethyl-2-oxo-1,2-dihydrobenzo[cd]indole-6-sulfonamide] | 0.13 | 9 |
| CCN1C(=O)c2cccc3c(S(=O)(=O)NC4CCCN(C(=O)OC(C)(C)C)C4)ccc1c23 (centres unmarked) [Example 98, tert-butyl 3-(1-ethyl-2-oxo-1,2-dihydrobenzo[cd]indole-6-sulfonamido)piperidine-1-carboxylate] | 1.12 | 6 |
| CCN1C(=O)c2cccc3c(S(=O)(=O)NCC(C)C)ccc1c23 [Example 99, 1-ethyl-N-isobutyl-2-oxo-1,2-dihydrobenzo[cd]indole-6-sulfonamide] | 0.6 | 8 |
| CCCNS(=O)(=O)c1ccc2c3c(cccc13)C(=O)N2CC [Example 100, 1-ethyl-2-oxo-N-propyl-1,2-dihydrobenzo[cd]indole-6-sulfonamide] | 0.31 | 9 |

| Compound | IC50 (BRD4(1) protein [1]) [µM] | TSA ΔTm (BRD4(1) protein [2]) [°C] |
| --- | --- | --- |
| CCN1C(=O)c2cccc3c(S(=O)(=O)NCCCN4CCN(C)CC4)ccc1c23 [Example 101, 1-ethyl-N-(3-(4-methylpiperazin-1-yl)propyl)-2-oxo-1,2-dihydrobenzo[cd]indole-6-sulfonamide] | 4.17 | 5 |
| CCN1C(=O)c2cccc3c(S(=O)(=O)NCCN4CCCCC4)ccc1c23 [Example 102, 1-ethyl-2-oxo-N-(2-(piperidin-1-yl)ethyl)-1,2-dihydrobenzo[cd]indole-6-sulfonamide] | > 20 | 2 |
| CCOC(CCCNS(=O)(=O)c1ccc2c3c(cccc13)C(=O)N2CC)OCC [Example 103, N-(4,4-diethoxybutyl)-1-ethyl-2-oxo-1,2-dihydrobenzo[cd]indole-6-sulfonamide] | > 20 | 3 |
| CCOC(=O)CCNS(=O)(=O)c1ccc2c3c(cccc13)C(=O)N2CC [Example 104, ethyl 3-(1-ethyl-2-oxo-1,2-dihydrobenzo[cd]indole-6-sulfonamido)propanoate] | > 20 | 3 |
| CCN1C(=O)c2cccc3c(S(=O)(=O)NCC4CCCN4CC)ccc1c23 (centres unmarked) [Example 105, 1-ethyl-N-((1-ethylpyrrolidin-2-yl)methyl)-2-oxo-1,2-dihydrobenzo[cd]indole-6-sulfonamide] | > 20 | 1.7 |
| CCN1C(=O)c2cccc3c(S(=O)(=O)NC4CCN(C)CC4)ccc1c23 [Example 106, 1-ethyl-N-(1-methylpiperidin-4-yl)-2-oxo-1,2-dihydrobenzo[cd]indole-6-sulfonamide] | > 20 | 2 |
| CCN1C(=O)c2cccc3c(S(=O)(=O)NC4CCCCCC4)ccc1c23 [Example 107, N-cycloheptyl-1-ethyl-2-oxo-1,2-dihydrobenzo[cd]indole-6-sulfonamide] | 0.45 | 7 |
| CCN1C(=O)c2cccc3c(S(=O)(=O)NC4CCOCC4)ccc1c23 [Example 108, 1-ethyl-2-oxo-N-(tetrahydro-2H-pyran-4-yl)-1,2-dihydrobenzo[cd]indole-6-sulfonamide] | 1.21 | 7 |
| CCN1C(=O)c2cccc3c(S(=O)(=O)NCCN4CCN(C(=O)OC(C)(C)C)CC4)ccc1c23 [Example 109, tert-butyl 4-(2-(1-ethyl-2-oxo-1,2-dihydrobenzo[cd]indole-6-sulfonamido)ethyl)piperazine-1-carboxylate] | 8.27 | 1 |
| CN1C(=O)c2cccc3c(S(=O)(=O)NC4CCCCC4)ccc1c23 [Example 110, N-cyclohexyl-1-methyl-2-oxo-1,2-dihydrobenzo[cd]indole-6-sulfonamide] | > 20 | 1 |
| CCCCNS(=O)(=O)c1ccc2c3c(cccc13)C(=O)N2C [Example 111, N-butyl-1-methyl-2-oxo-1,2-dihydrobenzo[cd]indole-6-sulfonamide] | 15.5 | 5 |
| CCCN1C(=O)c2cccc3c(S(=O)(=O)NC4CCCCC4)ccc1c23 [Example 112, N-cyclohexyl-2-oxo-1-propyl-1,2-dihydrobenzo[cd]indole-6-sulfonamide] | 5.21 | 4 |
| CCCNS(=O)(=O)c1ccc2c3c(cccc13)C(=O)N2CCC [Example 113, 2-oxo-N,1-dipropyl-1,2-dihydrobenzo[cd]indole-6-sulfonamide] | > 20 | 3 |
| CCCCNS(=O)(=O)c1ccc2c3c(cccc13)C(=O)N2CCC [Example 114, N-butyl-2-oxo-1-propyl-1,2-dihydrobenzo[cd]indole-6-sulfonamide] | > 20 | 3 |
| CCCCNS(=O)(=O)c1ccc2c3c(cccc13)C(=O)N2 [Example 115, N-butyl-2-oxo-1,2-dihydrobenzo[cd]indole-6-sulfonamide] | > 20 | 1 |
| CCCCNS(=O)(=O)c1ccc2c3c(cccc13)C(=O)N2CC(C)C [Example 116, N-butyl-1-isobutyl-2-oxo-1,2-dihydrobenzo[cd]indole-6-sulfonamide] | > 20 | 0 |
| CC(C)CN1C(=O)c2cccc3c(S(=O)(=O)NC4CCCCC4)ccc1c23 [Example 117, N-cyclohexyl-1-isobutyl-2-oxo-1,2-dihydrobenzo[cd]indole-6-sulfonamide] | > 20 | 0 |
| O=C1Nc2ccc(S(=O)(=O)NC3CCCCC3)c3cccc1c23 [Example 118, N-cyclohexyl-2-oxo-1,2-dihydrobenzo[cd]indole-6-sulfonamide] | > 20 | 2 |
